Non-standard residues stand in square brackets, D forms with d. No end group written: not given here. pS = N[C@@H](COP(=O)(O)O)C(=O)O
Tested on: Protein phosphatase 1 (PP1)
Assay: Bead-based multiplexed phosphatase activity assay (pIMAGO detection on spectrally encoded beads)
Assay type: biochemical
Details: beads incubated with PP1 versus buffer only
Procedure: FIG. 2A-B: Overview and example data from bead-based multiplexed phosphatase activity assay. A) Experimental setup of phosphatase assay. Beads with indicated peptides are incubated with either PP1 (top) or Buffer only (bottom). The beads are washed and the phopsphorylation status of the peptides on the beads is detected using pImago. The beads are analyzed using a microscope capable of exciting beads with UV light and then identifying the spectral code embedded within each bead. B) Preliminary data showing the effect of PP1 phosphatase treatment on the phosphorylation status of the TSFFXGISPIEEEAH peptide (X indicates phosphorylated Serine).
An assay to measure dephosphorylation is performed by incubating the (phospho) substrate peptides, e.g., synthesized directly on the encoded beads, with a phosphatase of interest. […] These images can then be analyzed using open-source image analysis software, e.g., Harink et al., PLOS ONE 2019, to identify the code (and thus the peptide sequence) and amount of phosphorylation associated with each bead. The ratio of phosphorylation detected between a control reaction in the absence of the phosphatase and in the presence of the phosphatase allows determination of how efficiently different peptide sequences are dephosphorylated. […]

pIMAGO signal (phosphorylation status of bead-bound peptide) after PP1 treatment: loss of the signal
Sequence: TSFFXGISPIEEEAH (TSFF[pS]GISPIEEEAH)

From patent US20260209823A1, “KINASE/PHOSPHATASE SUBSTRATE ANALYSIS AND COMPOSITIONS USING SPECTRALLY ENCODED MICROBEADS” (CZ Biohub SF, LLC, priority 2022, published 2026)
